Results: ChEMBL document CHEMBL2029277, “Discovery of XL413, a potent and selective CDC7 inhibitor” (Bioorg Med Chem Lett, 2012)

What was measured:
[1] = molecular target: T1, Cell division cycle 7-related protein kinase (Homo sapiens, UniProt O00311); experiment: Inhibition of N-terminus Myc-tagged human CDC7 expressed in Escherichia coli by chemiluminescence assay in presence of ATP
[2] = molecular target: Casein kinase II alpha/beta (Homo sapiens, UniProt P68400); experiment: Inhibition of human tertrameric CK2alphabeta holoenzyme using casein as substrate after 1 to 2 hrs by chemiluminescence assay in presence of 2 uM ATP; type: protein-complex assay
Sequence of Casein kinase II alpha/beta (P67870 whole entry): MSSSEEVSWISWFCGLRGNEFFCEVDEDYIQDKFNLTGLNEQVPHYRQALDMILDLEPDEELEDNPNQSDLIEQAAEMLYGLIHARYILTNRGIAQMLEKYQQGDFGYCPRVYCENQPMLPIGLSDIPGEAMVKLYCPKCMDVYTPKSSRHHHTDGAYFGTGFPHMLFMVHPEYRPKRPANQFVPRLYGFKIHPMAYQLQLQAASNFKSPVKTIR
Sequence of Casein kinase II alpha/beta (P68400 whole entry): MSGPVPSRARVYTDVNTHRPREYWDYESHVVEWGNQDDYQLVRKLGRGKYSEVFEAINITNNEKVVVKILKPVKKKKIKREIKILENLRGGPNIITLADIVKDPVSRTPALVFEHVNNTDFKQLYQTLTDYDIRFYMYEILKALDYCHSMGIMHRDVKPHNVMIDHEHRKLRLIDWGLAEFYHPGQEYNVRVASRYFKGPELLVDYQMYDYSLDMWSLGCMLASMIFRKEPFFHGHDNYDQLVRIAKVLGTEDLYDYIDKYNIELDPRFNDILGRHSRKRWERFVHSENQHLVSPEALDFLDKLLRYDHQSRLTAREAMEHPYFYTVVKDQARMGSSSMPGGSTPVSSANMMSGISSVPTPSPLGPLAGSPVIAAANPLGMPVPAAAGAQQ

[3] = Plasma concentration in mouse at 100 mg/kg, po measured after 4 hrs; type: ADME, organism-based; parameters: dose 100 mg/kg, route oral
[4] = Plasma concentration in mouse at 100 mg/kg, po measured after 1 hr; type: ADME, organism-based; parameters: dose 100 mg/kg, route oral
[5] = molecular target: Serine/threonine-protein kinase pim-1 (Homo sapiens, UniProt P11309); experiment: Inhibition of N-terminus His-tagged human PIM1 expressed in Escherichia coli using AKRRRLSA as substrate after 1 to 2 hrs by chemiluminescence assay
Sequence of Serine/threonine-protein kinase pim-1 (P11309 whole entry): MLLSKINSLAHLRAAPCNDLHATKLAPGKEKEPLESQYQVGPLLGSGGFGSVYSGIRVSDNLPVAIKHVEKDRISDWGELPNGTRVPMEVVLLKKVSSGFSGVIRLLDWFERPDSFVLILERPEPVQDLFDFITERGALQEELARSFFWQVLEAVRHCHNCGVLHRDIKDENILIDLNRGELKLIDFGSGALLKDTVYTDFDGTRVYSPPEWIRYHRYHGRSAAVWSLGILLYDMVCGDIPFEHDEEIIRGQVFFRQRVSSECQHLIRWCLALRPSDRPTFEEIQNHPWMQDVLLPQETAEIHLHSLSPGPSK

[6] = molecular target: T1, Cell division cycle 7-related protein kinase; experiment: Inhibition of CDC7 in human MDA-MB-231T cells assessed as inhibition of MCM2 phosphorylation at Ser53 after 4 hrs; type: cell-based

T1 sequence (O00311 whole entry): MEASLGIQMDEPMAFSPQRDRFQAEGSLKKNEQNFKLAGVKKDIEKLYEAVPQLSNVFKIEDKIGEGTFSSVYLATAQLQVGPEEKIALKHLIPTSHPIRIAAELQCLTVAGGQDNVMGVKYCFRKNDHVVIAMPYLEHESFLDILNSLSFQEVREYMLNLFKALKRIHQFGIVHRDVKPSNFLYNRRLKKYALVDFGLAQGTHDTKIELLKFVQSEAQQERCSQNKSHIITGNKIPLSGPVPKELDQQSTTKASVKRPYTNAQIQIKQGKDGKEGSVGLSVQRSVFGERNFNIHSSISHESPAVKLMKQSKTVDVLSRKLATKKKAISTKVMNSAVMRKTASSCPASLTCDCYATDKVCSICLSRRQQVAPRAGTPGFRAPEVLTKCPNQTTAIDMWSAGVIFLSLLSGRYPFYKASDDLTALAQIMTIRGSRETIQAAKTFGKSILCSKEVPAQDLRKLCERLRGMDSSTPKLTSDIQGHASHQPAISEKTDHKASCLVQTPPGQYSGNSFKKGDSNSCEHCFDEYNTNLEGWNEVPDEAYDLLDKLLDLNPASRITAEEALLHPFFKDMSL

Compound | IC50 [1] [nM] | IC50 [2] [nM] | concentration at 4 h [3] [µM] | concentration at 1 h [4] [µM] | IC50 [5] [nM] | IC50 [6] [nM]
O=c1[nH]cnc2c1oc1ccc(Br)cc12 | 2000 | 1500 | – | – | – | –
O=c1[nH]c(CN2CC[C@H](O)C2)nc2c1oc1cc(O)c(Br)cc12 | 1000 | – | 0.15 | 1.4 | – | –
CO[C@H]1CCN(Cc2nc3c(oc4ccc(Br)cc43)c(=O)[nH]2)C1 | 11 | 512 | – | – | 77 | 362
O=c1[nH]c(C2CNC2)nc2c1oc1ccc(Br)cc12 | 7.7 | 43 | – | – | 18 | 2540
O=c1[nH]c([C@@H]2CCCN2)nc2c1oc1ccc(Br)cc12 | 4.8 | 91 | 71 | 195 | 31 | 75
O=c1[nH]c([C@H]2CCCN2)nc2c1oc1ccc(Br)cc12 | 70 | 1510 | – | – | 104 | 4590
O=c1[nH]c(C2CCNCC2)nc2c1oc1ccc(Br)cc12 | 6.2 | 50 | – | – | 22 | 1430

Further lines, results first:

IC50 [1] [nM] | IC50 [2] [nM] | concentration at 4 h [3] [µM] | concentration at 1 h [4] [µM] | IC50 [5] [nM] | IC50 [6] [nM] | Compound
– | – | 49 | 101 | – | – | O=c1[nH]c(CN2CC[C@H](O)C2)nc2c1oc1ccc(Br)cc12
2200 | – | – | – | – | – | O=c1[nH]c(CN2CC[C@H](O)C2)nc2c1oc1ccc(Cl)cc12
9000 | – | – | – | – | – | COc1ccc2oc3c(=O)[nH]c(CN4CC[C@H](O)C4)nc3c2c1
14000 | – | – | – | – | – | O=c1[nH]c(CN2CC[C@H](O)C2)nc2c1oc1ccc3c(c12)OCO3
